≈ marks a conversion by molar mass, not a printed value.
Experiments:
B. subtilis [1] = experiment: Antibacterial disc diffusion; type: cell-based, Bacillus subtilis; settings: B. subtilis (G + ve)
Procedure: (§1) The antibacterial activity of the synthesized compound was evaluated using the disc diffusion method in accordance with the clinical and laboratory standards institute’s recommendations. Molten Mueller–Hinton agar and Sabouraud dextrose agar media were inoculated with the inoculum at 35 ± 2 °C and then poured into a Petri dish (90 mm). Each sample was soaked on 6 mm absorbent discs in dimethyl sulfoxide (DMSO) and placed on the inoculation plates. After 2 h at 4 °C, the plates were incubated at 35 ± 2 °C for 18–20 h. The inhibition zone diameters were determined. Positive control discs of selected antibiotics were included in each assay; inhibition zones were compared to the reference discs. Negative controls were treated with DMSO, and the assays were performed in triplicate.

S. aureus = experiment: Antibacterial disc diffusion; type: cell-based; settings: S. aureus (G + ve) in Table 2, disc diffusion
Procedure: as §1

E. coli [2] = experiment: Antibacterial disc diffusion; type: cell-based, Escherichia coli; settings: E. coli (G − ve)
Procedure: as §1

S. typhi = experiment: Antibacterial disc diffusion; type: cell-based, Salmonella typhi; settings: S. typhi (G − ve)
Procedure: as §1

P. aeruginosa [3] = experiment: Antibacterial disc diffusion; type: cell-based, Pseudomonas aeruginosa; settings: P. aeruginosa (G − ve)
Procedure: as §1

five bacterial pathogens = experiment: Antibacterial disc diffusion, statements on groups of bacteria; type: cell-based
Procedure: as §1

brine shrimp nauplii = experiment: Brine shrimp lethality bioassay; settings: 24 and 48 h
Procedure: Vials A, B, C, and D contained 4, 8, 16, and 32 μL of material. Each vial received 10 brine shrimp nauplii at […]. Ten nauplii in 5 mL saltwater were used for a control test. The vials were incubated at room temperature for 24–48 h. After incubation, the vials were magnified and counted to determine how many survived. Each concentration has an average nauplii mortality rate.

Bacillus cereus = experiment: Antibacterial disc diffusion; type: cell-based; settings: as named in text
Procedure: as §1

Aspergillus flavus = experiment: Mycelial growth inhibition, poisoned food method; type: cell-based; settings: 20 μg/μL in DMSO
Procedure: (§2) The potato dextrose agar (PDA)-based antifungal experiment was screened using the food poisoning approach. Sterilized 70 mm glass Petri dishes were filled with 20 mL melted PDA (45 °C). After the medium solidified, sterilized needles placed small amounts of mycelia from the two fungal pathogens in the center of each plate. […] After 48 h at 37 °C, mycelial growth was measured.

E. coli [4] = experiment: MIC and MBC microdilution; settings: Escherichia coli
Procedure: (§3) Microdilution techniques were employed to calculate the minimum inhibitory concentration (MIC) and the minimum bactericidal concentration (MBC). […] After solidification, the medium incorporated was seeded from suspensions of bacteria at a concentration of 0.5 McFarland standard (1.0 × 10^8 CFU/mL). After 18–20 h of incubation at 35 ± 2 °C, the absence or presence of microbial growth in Petri dishes was determined by examination with the naked eye. […] All compounds were evaluated three times against each microorganism.

B. subtilis [5] = experiment: MIC and MBC microdilution; settings: Bacillus subtilis
Procedure: as §3

B. cereus = experiment: MIC and MBC microdilution; settings: Bacillus cereus
Procedure: as §3

S.typhi = experiment: MIC and MBC microdilution; settings: Salmonella enterica
Procedure: as §3

P. aeruginosa [6] = experiment: MIC and MBC microdilution; settings: Pseudomonas aeruginosa
Procedure: as §3

Aspergillus niger = experiment: Mycelial growth inhibition, poisoned food method; type: cell-based; settings: for Millimeters of Fungal Mycelial Growth Inhibition in DMSO (20 μg/μL): Aspergillus niger, 20 μg/μL in DMSO
Procedure: as §2

[7] = tested on: EAC (Ehrlich ascites carcinoma) cells; experiment: MTT assay, antiproliferative activity; type: cell-based, Swiss albino mouse
Procedure: Ehrlich ascites carcinoma (EAC) cells were cultivated in conventional DMEM from a Swiss albino mouse bearing a tumor [45]. A 96-well flat-bottomed cell culture plate with 2 × 10^4 cells in 100 μL was incubated at 37 °C in a CO2 incubator for 24 h. Controls were three wells of untreated EAC cells in DMEM. […] After removing the aliquot, 10 mM PBS and 20 μL of MTT reagent (5 mg/mL MTT in PBS) were added. After another 8 h at 37 °C, the aliquot was drained, and acidic isopropanol (200 μL) was added. Absorbance values at 570 nm were recorded after another 30 min CO2 incubator incubation. The following formula was used to estimate cell proliferation incubation:Proliferation inhibition ratio (%) = (A − B) × 100/A where A and B represent the cellular homogenate OD570 nm from control wells and compound 6-treated wells, respectively.

Row | Compound | Diameter of Inhibition Zones (S. aureus) | Diameter of Inhibition Zones (S. typhi) | activity against Gram-positive organisms (five bacterial pathogens) | inhibition among all bacterial types (five bacterial pathogens) | death (brine shrimp mortality) (brine shrimp nauplii) | inhibition against the Gram-negative bacteria P. aeruginosa and S. typhi (five bacterial pathogens) | Millimeters of Fungal Mycelial Growth Inhibition in DMSO (20 μg/μL) (Aspergillus flavus) | inhibition of A. niger (Aspergillus niger) [%] | Millimeters of Fungal Mycelial Growth Inhibition in DMSO (20 μg/μL) (Aspergillus niger) | other results
1 | CC[C@H]1OC(=O)[C@H](C)[C@@H](O[C@H]2C[C@@](C)(OC)[C@@H](O)[C@H](C)O2)[C@H](C)[C@@H](O[C@@H]2O[C@H](C)C[C@H](N(C)C)[C@H]2O)[C@](C)(O)C[C@@H](C)CN(C)[C@H](C)[C@@H](O)[C@]1(C)O [Azithromycin, reference compound] | ** 17 ± 0.50 mm | ** 18 ± 0.90 mm |  |  |  |  |  |  |  | Diameter of Inhibition Zones (B. subtilis [1]): ** 18 ± 0.10 mm; Diameter of Inhibition Zones (E. coli [2]): ** 17 ± 0.50 mm; Diameter of Inhibition Zones (P. aeruginosa [3]): ** 15 ± 0.10 mm
2 | O=c1ccn([C@@H]2O[C@H](CO)[C@@H](O)[C@H]2O)c(=O)[nH]1 [Compound 1, uridine, reference compound] |  |  | inactive | no inhibition |  |  |  |  |  | 
3 | CCCCCCCCCCCCCCCC(=O)OC[C@H]1O[C@@H](n2ccc(=O)[nH]c2=O)[C@H](O)[C@@H]1O [Compound 2, 5′-Oxo-palmitoyluridine] |  |  | inactive | no inhibition | 31.21% |  |  |  |  | 
4 | CCCCCCCCCCCCCCCC(=O)OCC1OC(n2ccc(=O)[nH]c2=O)C(OC(=O)CCCCCCCCCCC)C1OC(=O)CCCCCCCCCCC (centres unmarked) [Compound 3, 2′,3′-Di-oxo-lauroyl-5′-oxo-palmitoyluridine] |  | * 11.0 ± 0.0 mm | inactive |  | 48.24–49.28% | reasonable inhibition |  |  |  | 
5 | CCCCCCCCCCCCCCCC(=O)OCC1OC(n2ccc(=O)[nH]c2=O)C(OC(=O)CCCCCCCCCCCCC)C1OC(=O)CCCCCCCCCCCCC (centres unmarked) [Compound 4, 2′,3′-Di-oxo-myristoyl-5′-oxo-palmitoyluridine] | * 15 ± 0.50 mm |  |  |  | 48.24–49.28% | reasonable inhibition | 31 ± 0.15 Millimeters |  |  | inhibition zone (Bacillus cereus): 15 ± 0.50 mm; Diameter of Inhibition Zones (P. aeruginosa [3]): 7 ± 0.25 mm; MIC (E. coli [4]): 0.5 µg/mL (≈ 0.554 µM); MBC (B. subtilis [5]): 8 µg/mL (≈ 8.86 µM); MIC (B. subtilis [5]): 4 µg/mL (≈ 4.43 µM); MIC (B. cereus): 0.13 µg/mL (≈ 0.144 µM); MBC (S.typhi): 16 µg/mL (≈ 17.7 µM); MIC (S.typhi): 0.5 µg/mL (≈ 0.554 µM); MBC (P. aeruginosa [6]): 16 µg/mL (≈ 17.7 µM); MIC (P. aeruginosa [6]): 0.5 µg/mL (≈ 0.554 µM)
6 | CCCCCCCCCCCCCCCC(=O)OCC1OC(n2ccc(=O)[nH]c2=O)C(OC(c2ccccc2)(c2ccccc2)c2ccccc2)C1OC(c1ccccc1)(c1ccccc1)c1ccccc1 (centres unmarked) [Compound 5, 5′-oxo-Palmitoyl-2′,3′-di-oxo-trityluridine] | * 16 ± 0.20 mm | * 12 ± 0.25 mm |  |  | 34.25% |  | * 66 ± 0.39 Millimeters | 64 ± 0.44 | * 64 ± 0.44 Millimeters | inhibition zone (Bacillus cereus): 16 ± 0.20 mm; MIC (E. coli [4]): 4 µg/mL (≈ 4.14 µM); MBC (E. coli [4]; E. coli): 8 µg/mL (≈ 8.27 µM); MBC (B. subtilis [5]): 8 µg/mL (≈ 8.27 µM); MIC (B. subtilis [5]): 0.5 µg/mL (≈ 0.517 µM); MIC (B. cereus): 1 µg/mL (≈ 1.03 µM); MBC (B. cereus; B. cereus): 16 µg/mL (≈ 16.5 µM); MBC (S.typhi): 8 µg/mL (≈ 8.27 µM); MIC (S.typhi): 0.5 µg/mL (≈ 0.517 µM)
7 | CCCCCCCCCCCCCCCC(=O)OC[C@H]1O[C@@H](n2ccc(=O)[nH]c2=O)[C@H](OC(=O)C=Cc2ccccc2)[C@@H]1OC(=O)C=Cc1ccccc1 [Compound 6, 2′,3′-Di-oxo-cinnamoyl-5′-oxo-palmitoyluridine] |  |  | inactive | no inhibition |  |  | 53 ± 0.33 Millimeters | 72 ± 0.95 | * 72 ± 0.95 Millimeters | cytotoxicity effects ([7]; 15.625 µg/mL): 3.11%; cytotoxicity effects ([7]; 31.25 µg/mL): 4.41%; cytotoxicity effects ([7]; 62.25 µg/mL (62.5 in Figure 5)): 5.41%; cytotoxicity effects ([7]; 125 µg/mL): 7.51%; cytotoxicity effects ([7]; 250 µg/mL): 14.02%; cytotoxicity effects ([7]; 500 µg/mL): 23.22%; IC50 ([7]; Mus musculus, Ehrlich, MTT): > 500 µg/mL
8 | CCCCCCCCCCCCCCCC(=O)OC[C@H]1O[C@@H](n2ccc(=O)[nH]c2=O)[C@H](OC(=O)c2ccc(C(C)(C)C)cc2)[C@@H]1OC(=O)c1ccc(C(C)(C)C)cc1 [Compound 7, 2′,3′-Di-oxo-(4-t-butylbenzoyl)-5′-oxo-palmitoyluridine] |  | 9 ± 0.00 mm | inactive |  | 33.71% | reasonable inhibition | * 63 ± 0.10 Millimeters | 66 ± 0.41 | * 66 ± 0.41 Millimeters | 
9 | C[C@@H]1[C@H](O)[C@@H](C)/C=C/C=C/CC/C=C/C=C/C=C/C=C/C(O[C@H]2O[C@H](C)[C@@H](O)[C@H](N)[C@@H]2O)CC2O[C@](O)(CC(O)C(O)CCC(O)CC(O)CC(O)CC(=O)O[C@H]1C)CC(O)C2C(=O)O (some centres unmarked) [Nystatin, reference compound] |  |  |  |  |  |  | 61 ± 0.00 Millimeters | 59 ± 0.00 | 59 ± 0.00 Millimeters | 

— PMC10302127 (Medicina, 2023)
